Reference: PMC8615111, “Phenolic Thiazoles with Antioxidant and Antiradical Activity. Synthesis, In Vitro Evaluation, Toxicity, Electrochemical Behavior, Quantum Studies and Antimicrobial Screening” (Antioxidants, 2021)
≈ marks a conversion by molar mass, not a printed value. Like-named read-outs stand apart in the source and are kept apart here.

Legend:
[1] = TEMPO scavenging by differential pulse voltammetry; conditions: 2 mM TEMPO, one hour incubation, 0.1 M HClO4, DPV
Description: The antioxidant properties were evaluated in terms of their activity against some free radicals, and other compounds reported in the literature, relevant for this purpose, such as: • ferric ions (Fe^3+)—used to test the reduction of the antioxidant character of the compounds; • DPPH˙ free radical– used to test the scavenging effect of the compounds on this radical; • hydrogen peroxide (H2O2)—used to test the scavenging effect of the synthesized molecules on this compound; • 2,2,6,6-tetramethylpiperidinyl-1-oxy (TEMPO)—used to test the scavenging effect of the synthesized molecules on this compound.
TEMPO (2,2,6,6-tetramethylpiperidine-N-oxyl) is a stable organic nitroxide radical that has been reported to scavenge carbon-centered radicals.
Differential pulse voltammetry (DPV) was then applied in order to evaluate the antioxidant effectiveness of the novel compounds through their ability to scavenge the free radical species.

[2] = test system: HaCaT cells; test: Cytotoxicity determination, MTT method; assay type: cell-based; conditions: Homo sapiens, 24 h
Description: To determine the cytotoxic action of the obtained compounds 5[…], and 8a-b, a normal human keratinocytes cell line was used (HaCaT keratinocytes, CLS-300493, Eppelheim, Germany). HaCaT cells were cultured in Dulbecco's Modified Eagle Media (DMEM) supplemented with 1% L-glutamine, 1% penicillin-streptomycin, and 5% fetal bovine serum. At 80% confluence, the cells were transferred to 96 well plates at a confluence of 12×10^3 cells/well and left to attach for 24 h at 37°C and 5% CO2 in a humidified atmosphere. […] After 24 h, the culture media was replaced with 100 μL of MTT solution at a final concentration of 5 μg/mL/well and left to interact with the cells for 2 h in the incubator. After this, the MTT solution was replaced with 100 μL of isopropanol, left to dissolve the formazan crystals for 5 min, and read at 550 and 630 nm using a BioTek Epoch plate reader (BioTek Instruments, Winooski, VT, USA) and Gen5 software (version 1.09).

[3] = DPPH˙ radical scavenging assay; assay type: biochemical; conditions: for IC50: DPPH˙ scavenging
Description: The 2,2-diphenyl-1-picrylhydrazyl (DPPH˙) radical scavenging assay is based on the transfer of one hydrogen from the analyzed compound to the violet radical DPPH˙. This will convert it to a yellow compound, the change in absorbance being proportional to the amount of DPPH˙ neutralized, according to Brand-Williams et al..
The preparation of the DPPH˙ reagent was previously reported by our group. […] Over the previous quantities, DMSO was added until a total volume of 50 µL was obtained in all cuvettes, and 1950 µL of DPPH˙ solution was added to all cuvettes; then, they were shaken for well over 10 min in the dark at room temperature. The absorbances of the solutions were measured at λ = 517 nm. The DPPH˙ radical scavenging activity of evaluated compounds was calculated using Equation (2):(2) DPPH scavenging (%)=control absorbance−sample absorbance/control absorbance×100

[4] = ABTS˙^+ radical scavenging assay; assay type: biochemical
Description: The assay was based on the decolorization of green (2,2′-azinobis-(3-ethylbenzothiazoline-6-sulfonic acid) ABTS˙^+ to ABTS, on the principle reported by Re et al. and was carried out according to our previously published research.
Later, 1950 µL of ABTS˙^+ reagent was added to all cuvettes and they were shaken for well over 10 min in the dark at room temperature. The absorbance of the resulted solutions found in cuvettes was determined spectrophotometrically at λ = 734 nm. The ABTS scavenging activity of the compounds was calculated using the following Equation (1):(1) ABTS scavenging (%)=control absorbance−sample absorbance/control absorbance×100

[5] = test system: E. coli ATCC 25922; test: Antimicrobial activity, modified microdilution; assay type: cell-based; conditions: Escherichia coli, ATCC25922
Description: (§1) For evaluating the antimicrobial activity of the compounds, […] aerobic microbial strains were used: S. aureus ATCC 25923, S. pyogenes ATCC 19615, P. aeruginosa ATCC 27853, S. enterica ISM 83/37, S. typhimurium ATCC 14028, E. coli ATCC 8739, E. coli ATCC 25922, and C. albicans ATCC 102310 obtained from Food Biotechnology Laboratory, Life Sciences Institute, University of Agricultural Sciences, and Veterinary Medicine Cluj Napoca, where the experiment was performed. The antimicrobial activity of the compounds was determined using a modified microdilution technique, and the followed protocol was previously reported.
(§2) The antimicrobial activity of the final compounds, against seven aerobic microbial strains (S. aureus ATCC 25923, S. pyogenes ATCC 19615, P. aeruginosa ATCC 27853, S. enterica ISM 83/37, S. typhimurium ATCC 14028, E. coli ATCC 8739, E. coli ATCC 25922), and a fungal strain (C. albicans ATCC 102310), was determined using a modified microdilution technique.
(§3) The results of the antimicrobial activity evaluation of the compounds, in comparison to norfloxacin and chloramphenicol used as standard antibiotics and fluconazole used as reference antifungal, are depicted in Table 10.

[6] = test system: S. aureus ATCC 25923; test: Antimicrobial activity, modified microdilution; assay type: cell-based; conditions: Staphylococcus aureus, ATCC25923
Description: as §1, §2, §3

[7] = test system: S. pyogenes ATCC 19615; test: Antimicrobial activity, modified microdilution; assay type: cell-based; conditions: Streptococcus pyogenes, ATCC19615
Description: as §1, §2, §3

[8] = test system: S. typhimurium ATCC 14028; test: Antimicrobial activity, modified microdilution; assay type: cell-based; conditions: Salmonella enterica
Description: as §1, §2, §3

[9] = test system: S. enterica ISM 83/37; test: Antimicrobial activity, modified microdilution; assay type: cell-based; conditions: Salmonella enterica, ISM83/37
Description: as §1, §2, §3

[10] = test system: P. aeruginosa ATCC 27853; test: Antimicrobial activity, modified microdilution; assay type: cell-based; conditions: Pseudomonas aeruginosa, ATCC27853
Description: as §1, §2, §3

[11] = test system: E. coli ATCC 8739; test: Antimicrobial activity, modified microdilution; assay type: cell-based; conditions: Escherichia coli, ATCC8739
Description: as §1, §2, §3

[12] = test system: C. albicans ATCC 102310; test: Antifungal activity, modified microdilution; assay type: cell-based; conditions: Candida albicans, ATCC102310
Description: as §1, §2, §3

[13] = NO˙ radical scavenging assay (Griess reaction); assay type: biochemical; conditions: 100 µL of test solution 1 mg/mL in DMSO, 150 min, pH 7.4
Description: Scavenging of the NO˙ radical was performed according to some adapted protocols reported in the literature, based on the nitroprusside decomposition at physiological pH and colorimetric quantification of the resulted products using the Griess reaction.
Over 200 µL of 10 mM sodium nitroprusside, 100 µL of test solutions (1 mg/mL in DMSO), and 400 µL phosphate-buffered saline (PBS, pH = 7.4) were added. The mixture was then incubated at room temperature for 150 min on a rotating shaker (GFL Gesellschaft für Labortechnik, Burgwedel, Germany). After that, 1 mL of sulfanilic acid 0.33% in 20% acetic acid was added and after 5 min, 1 mL of naphthylethylenediamine […] 0.1% was added to all test tubes. After 30 min, the absorbance of the sample, given by the chromophore (azo dye) formed during the diazotization of nitrite ions resulting from decomposition of sodium nitroprusside with sulfanilic acid and coupled with naphthylethylenediamine, was measured at 546 nm. The NO˙ radical scavenging activity of the tested compounds was calculated using Equation (3):(3) NO˙ scavenging (%)=control absorbance−sample absorbance/control absorbance×100

[14] = Fe^2+ chelation assay; assay type: biochemical
Description: The protocol used for assessing Fe^2+ chelating capacity of the compounds was adapted from a report of Benzie and Strain and previously reported by our group. The iron(II) chelation ability of compounds was calculated using Equation (7):(7) iron chelation (%)=control absorbance−sample absorbance/control absorbance×100
The chelating potential for the ferrous ions of the new compounds was determined, based on their competition for Fe^2+ with ferrozine.

[15] = Cu^2+ chelation assay; assay type: biochemical

For O=C1O[C@H]([C@@H](O)CO)C(O)=C1O [Ascorbic acid, reference compound], the “oxidation signal for TEMPO after incubation with the compound” value [1] was “decreases”, the IC50 ([2]; HaCaT) was 22.8 µg/mL and the IC50 ([2]; HaCaT cells, MTT, read-out: IC50) was 129 µM. The “% of DPPH˙ Scavenged” value ([3]; 1 µg/mL) was 19.39%, the “% of DPPH˙ Scavenged” value ([3]; 1.5 µg/mL) was 29.10% and the “% of DPPH˙ Scavenged” value ([3]; 2 µg/mL) was 38.27%. The “% of DPPH˙ Scavenged” value ([3]; 3 µg/mL) was 53.42%, the “% of DPPH˙ Scavenged” value ([3]; 5 µg/mL) was 80.28% and the IC50 [3] was 2.89 µg/mL (≈ 16.4 µM). For the same compound, the “% of ABTS˙^+ Scavenged” value ([4]; 0.5 µg/mL) was 9.56%, the “% of ABTS˙^+ Scavenged” value ([4]; 0.75 µg/mL) was 14.32% and the “% of ABTS˙^+ Scavenged” value ([4]; 1 µg/mL) was 20.61%. The “% of ABTS˙^+ Scavenged” value ([4]; 1.5 µg/mL) was 38.24%, the “% of ABTS˙^+ Scavenged” value ([4]; 2.5 µg/mL) was 64.58% and the IC50 ([4]; ABTS˙^+ scavenging) was 1.97 µg/mL (≈ 11.2 µM).
In the case of O=C(N[C@H](CO)[C@H](O)c1ccc([N+](=O)[O-])cc1)C(Cl)Cl [Chloramphenicol, reference compound], the MIC [5] is reported as 3.9 µg/mL (≈ 12.1 µM), the MIC [6] is reported as 7.8 µg/mL (≈ 24.1 µM) and the MIC [7] is reported as 3.9 µg/mL (≈ 12.1 µM). It also gave an MIC [8] of less than 0.48 µg/mL, an MIC [9] of 3.9 µg/mL (≈ 12.1 µM) and an MIC [10] of 0.48 µg/mL (≈ 1.49 µM). It also gave an MIC [11] of 7.8 µg/mL (≈ 24.1 µM).
With OC(Cn1cncn1)(Cn1cncn1)c1ccc(F)cc1F [Fluconazole, reference compound] the MIC [12] was 31.2 µg/mL (≈ 102 µM).
With O=C(O)c1cc(O)ccc1O [Gentisic acid, reference compound] the “% of NO˙ Scavenged” value [13] was 47.33%.
Work on CCn1cc(C(=O)O)c(=O)c2cc(F)c(N3CCNCC3)cc21 [Norfloxacin, reference compound] yielded an MIC [5] of 7.8 µg/mL (≈ 24.4 µM), an MIC [6] of 0.48 µg/mL (≈ 1.5 µM) and an MIC [7] of less than 0.48 µg/mL. It also gave an MIC [8] of less than 0.48 µg/mL, an MIC [9] of less than 0.48 µg/mL and an MIC [10] of 7.8 µg/mL (≈ 24.4 µM). For the same compound, the MIC [11] was less than 0.48 µg/mL.
For Cc1c(C)c2c(c(C)c1O)CCC(C)(C(=O)O)O2 (centres unmarked) [Trolox, reference compound], the “% of DPPH˙ Scavenged” value ([3]; 1 µg/mL) was 10.83%, the “% of DPPH˙ Scavenged” value ([3]; 1.5 µg/mL) was 17.10% and the “% of DPPH˙ Scavenged” value ([3]; 2 µg/mL) was 20.56%. The “% of DPPH˙ Scavenged” value ([3]; 3 µg/mL) was 31.91%, the “% of DPPH˙ Scavenged” value ([3]; 5 µg/mL) was 53.67% and the IC50 [3] was 4.68 µg/mL (≈ 18.7 µM). The “% of NO˙ Scavenged” value [13] was 32.12%.
With “disodium salt of ethylenediaminetetraacetic acid [EDTA-Na2, reference compound]” the “Chelation Capacity (%), ferrous ions” value ([14]; 50 µg/mL) was 20.86%, the “Chelation Capacity (%), ferrous ions” value ([14]; 100 µg/mL) was 57.32% and the “Chelation Capacity (%), ferrous ions” value ([14]; 150 µg/mL) was greater than 95.00%. The “Chelation Capacity (%), ferrous ions” value ([14]; 200 µg/mL) was greater than 95.00%, the “Chelation Capacity (%), cupric ions” value ([15]; 3.36 µg/mL) was 12.36% and the “Chelation Capacity (%), cupric ions” value ([15]; 6.72 µg/mL) was 19.61%. For the same compound, the “Chelation Capacity (%), cupric ions” value ([15]; 10.08 µg/mL) was 29.97%, the “Chelation Capacity (%), cupric ions” value ([15]; 13.44 µg/mL) was 39.18% and the “Chelation Capacity (%), cupric ions” value ([15]; 16.80 µg/mL) was 45.86%.
